Measurements taken from patent US20250282799A1, “SUBSTITUTED PYRIDO[4,3-d]PYRIMIDINES AS KRAS MODULATORS” (Alterome Therapeutics, Inc., priority 2023, published 2025).

System: KRAS G12V dependent lung adenocarcinoma cell line, NCI-H441
Experiment: Cellular pERK (Thr202/Tyr204) FRET/HTRF assay
Format: cell-based
Conditions: Homo sapiens, NCI-H441, cellular pERK (Thr202/Tyr204) HTRF, NCI-H441 cells
In short: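 Using a mix-and-read HTRF kit, phospho-ERK (Thr202/Tyr204) was detected in NCI-H441 lysates following 1 hr compound incubation at 37 °C, 5% CO2. Cells had been seeded overnight beforehand, and IC50 was derived by curve fitting.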

IC50	SMILES
50 to 500 nM	C#Cc1c(F)c(F)cc2cccc(-c3ncc4c(N5CCOC[C@H]6[C@H](F)[C@H]65)nc(OC[C@]56CCCN5CC(=C(F)F)C6)nc4c3F)c12 [Example 107, (1S,7S,8S)-2-(2-(((R)-2-(difluoromethylene)tetrahydro-1H-pyrrolizin-7a(5H)-yl)methoxy)-7-(8-ethynyl-6,7-difluoronaphthalen-1-yl)-8-fluoropyrido[4,3-d]pyrimidin-4-yl)-8-fluoro-5-oxa-2-azabicyclo[5.1.0]octane]
< 50 nM	[2H]C([2H])(Oc1nc(N2CCOC[C@H]3[C@H](F)[C@H]32)c2cnc(-c3cc(N)cc4c(F)cc(F)c(C#C)c34)c(F)c2n1)[C@@]12CCCN1C[C@H](F)C2 [Example 108, 5-ethynyl-6,8-difluoro-4-(8-fluoro-4-((1S,7S,8S)-8-fluoro-5-oxa-2-azabicyclo[5.1.0]octan-2-yl)-2-(((2R,7aS)-2-fluorotetrahydro-1H-pyrrolizin-7a(5H)-yl)methoxy-d2)pyrido[4,3-d]pyrimidin-7-yl)naphthalen-2-amine]
50 to 500 nM	[2H]C([2H])([2H])Oc1c(F)c(F)cc2cccc(-c3ncc4c(N5CCCC[C@H]6[C@H](F)[C@H]65)nc(OC([2H])([2H])[C@@]56CCCN5C[C@H](F)C6)nc4c3F)c12 [Example 109, 7-(6,7-difluoro-8-(methoxy-d3)naphthalen-1-yl)-8-fluoro-4-((1S,7R,8S)-8-fluoro-2-azabicyclo[5.1.0]octan-2-yl)-2-(((2R,7aS)-2-fluorotetrahydro-1H-pyrrolizin-7a(5H)-yl)methoxy-d2)pyrido[4,3-d]pyrimidine]
500 to 10000 nM	[2H]C([2H])([2H])Oc1c(F)c(F)c(F)c2cccc(-c3ncc4c(N5CCCC[C@H]6[C@H](F)[C@H]65)nc(OC([2H])([2H])[C@@]56CCCN5C[C@H](F)C6)nc4c3F)c12 [Example 110, 8-fluoro-4-((1S,7R,8S)-8-fluoro-2-azabicyclo[5.1.0]octan-2-yl)-2-(((2R,7aS)-2-fluorotetrahydro-1H-pyrrolizin-7a(5H)-yl)methoxy-d2)-7-(5,6,7-trifluoro-8-(methoxy-d3)naphthalen-1-yl)pyrido[4,3-d]pyrimidine]
500 to 10000 nM	[2H]C([2H])(Oc1nc(N2CCCC[C@H]3[C@H](F)[C@H]32)c2cnc(-c3cccc4c(F)c(F)c(F)c(C#C)c34)c(F)c2n1)[C@@]12CCCN1C[C@H](F)C2 [Example 111, 7-(8-ethynyl-5,6,7-trifluoronaphthalen-1-yl)-8-fluoro-4-((1S,7R,8S)-8-fluoro-2-azabicyclo[5.1.0]octan-2-yl)-2-(((2R,7aS)-2-fluorotetrahydro-1H-pyrrolizin-7a(5H)-yl)methoxy-d2)pyrido[4,3-d]pyrimidine]
50 to 500 nM	[2H]C([2H])(Oc1nc(N2CCCC[C@H]3[C@H](F)[C@H]32)c2cnc(-c3cccc4c(F)cc(F)c(C#C)c34)c(F)c2n1)[C@@]12CCCN1C[C@H](F)C2 [Example 112, 7-(8-ethynyl-5,7-difluoronaphthalen-1-yl)-8-fluoro-4-((1S,7R,8S)-8-fluoro-2-azabicyclo[5.1.0]octan-2-yl)-2-(((2R,7aS)-2-fluorotetrahydro-1H-pyrrolizin-7a(5H)-yl)methoxy-d2)pyrido[4,3-d]pyrimidine]
500 to 10000 nM	[2H]C([2H])(Oc1nc(N2CCOC[C@H]3[C@H](F)[C@H]32)c2cnc(-c3cncc4ccc(F)c(Cl)c34)c(F)c2n1)[C@@]12CCCN1C[C@H](F)C2 [Example 113, (1S,7S,8S)-2-(7-(5-chloro-6-fluoroisoquinolin-4-yl)-8-fluoro-2-(((2R,7aS)-2-fluorotetrahydro-1H-pyrrolizin-7a(5H)-yl)methoxy-d2)pyrido[4,3-d]pyrimidin-4-yl)-8-fluoro-5-oxa-2-azabicyclo[5.1.0]octane]
< 50 nM	[2H]C([2H])(Oc1nc(N2CCOC[C@H]3[C@H](F)[C@H]32)c2cnc(-c3cncc4ccc(F)c(C#C)c34)c(F)c2n1)[C@@]12CCCN1C[C@H](F)C2 [Example 114, (1S,7S,8S)-2-(7-(5-Ethynyl-6-fluoroisoquinolin-4-yl)-8-fluoro-2-(((2R,7aS)-2-fluorotetrahydro-1H-pyrrolizin-7a(5H)-yl)methoxy-d2)pyrido[4,3-d]pyrimidin-4-yl)-8-fluoro-5-oxa-2-azabicyclo[5.1.0]octane]
< 50 nM	[2H]C([2H])(Oc1nc(N2CCCO[C@H]3[C@H](F)[C@H]32)c2cnc(-c3cc(N)cc4c(F)c(F)c(F)c(C#C)c34)c(F)c2n1)[C@@]12CCCN1C[C@H](F)C2 [Example 115, 5-ethynyl-6,7,8-trifluoro-4-(8-fluoro-4-((1R,7S,8R)-8-fluoro-2-oxa-6-azabicyclo[5.1.0]octan-6-yl)-2-(((2R,7aS)-2-fluorotetrahydro-1H-pyrrolizin-7a(5H)-yl)methoxy-d2)pyrido[4,3-d]pyrimidin-7-yl)naphthalen-2-amine]
< 50 nM	[2H]C([2H])(F)Oc1c(F)ccc2cc(N)cc(-c3ncc4c(N5CCOC[C@H]6[C@H](F)[C@H]65)nc(OC([2H])([2H])[C@@]56CCCN5C[C@H](F)C6)nc4c3F)c12 [Example 116, 6-Fluoro-4-(8-fluoro-4-((1S,7S,8S)-8-fluoro-5-oxa-2-azabicyclo[5.1.0]octan-2-yl)-2-(((2R,7aS)-2-fluorotetrahydro-1H-pyrrolizin-7a(5H)-yl)methoxy-d2)pyrido[4,3-d]pyrimidin-7-yl)-5-(fluoromethoxy-d2)naphthalen-2-amine]
< 50 nM	[2H]C([2H])(Oc1nc(N2CCCO[C@H]3[C@H](F)[C@H]32)c2cnc(-c3cc(N)cc4c(F)cc(F)c(C#C)c34)c(F)c2n1)[C@@]12CCCN1C[C@H](F)C2 [Example 117, 5-ethynyl-6,8-difluoro-4-(8-fluoro-4-((1R,7S,8R)-8-fluoro-2-oxa-6-azabicyclo[5.1.0]octan-6-yl)-2-(((2R,7aS)-2-fluorotetrahydro-1H-pyrrolizin-7a(5H)-yl)methoxy-d2)pyrido[4,3-d]pyrimidin-7-yl)naphthalen-2-amine]
< 50 nM	[2H]C([2H])(Oc1nc(N2CCOC[C@@H]3[C@H]2[C@@]3([2H])F)c2cnc(-c3cccc4ccc(F)c(C#C)c34)c(F)c2n1)[C@@]12CCCN1C[C@H](F)C2 [Example 118, (1S,7S,8S)-2-(7-(8-ethynyl-7-fluoronaphthalen-1-yl)-8-fluoro-2-(((2R,7aS)-2-fluorotetrahydro-1H-pyrrolizin-7a(5H)-yl)methoxy-d2)pyrido[4,3-d]pyrimidin-4-yl)-8-fluoro-5-oxa-2-azabicyclo[5.1.0]octane-8-d]
< 50 nM	[2H]C([2H])([2H])Oc1c(F)c(F)c(F)c2cc(N)cc(-c3ncc4c(N5CCOC[C@@H]6[C@H]5[C@@]6([2H])F)nc(OC([2H])([2H])[C@@]56CCCN5C[C@H](F)C6)nc4c3F)c12 [Example 119, 6,7,8-trifluoro-4-(8-fluoro-4-((1S,7S,8S)-8-fluoro-5-oxa-2-azabicyclo[5.1.0]octan-2-yl-8-d)-2-(((2R,7aS)-2-fluorotetrahydro-1H-pyrrolizin-7a(5H)-yl)methoxy-d2)pyrido[4,3-d]pyrimidin-7-yl)-5-(methoxy-d3)naphthalen-2-amine]
< 50 nM	[2H]C([2H])([2H])Oc1c(F)c(F)c(F)c2cc(N)cc(-c3ncc4c(N5CCOC[C@H]6[C@H](F)[C@H]65)nc(OC[C@]56CC(=C)CN5CCC65CC5)nc4c3F)c12 [Example 120, 6,7,8-trifluoro-4-(8-fluoro-4-((1S,7S,8S)-8-fluoro-5-oxa-2-azabicyclo[5.1.0]octan-2-yl)-2-(((R)-6′-methylenetetrahydrospiro[cyclopropane-1,1′-pyrrolizin]-7a′(5′H)-yl)methoxy)pyrido[4,3-d]pyrimidin-7-yl)-5-(methoxy-d3)naphthalen-2-amine]
< 50 nM	[2H]C([2H])([2H])Oc1c(F)c(F)c(F)c2cc(N)cc(-c3ncc4c(N5CCOC[C@H]6[C@H](F)[C@H]65)nc(OC[C@@]56CC(=C)CN5CCC65CC5)nc4c3F)c12 [Example 121, 6,7,8-trifluoro-4-(8-fluoro-4-((1S,7S,8S)-8-fluoro-5-oxa-2-azabicyclo[5.1.0]octan-2-yl)-2-(((S)-6′-methylenetetrahydrospiro[cyclopropane-1,1′-pyrrolizin]-7a′(5′H)-yl)methoxy)pyrido[4,3-d]pyrimidin-7-yl)-5-(methoxy-d3)naphthalen-2-amine]
< 50 nM	[2H]C([2H])(Oc1nc(N2CCOC[C@@H]3[C@H]2[C@@]3([2H])F)c2cnc(-c3cccc4cc(F)c(F)c(C#C)c34)c(F)c2n1)[C@@]12CCCN1C[C@H](F)C2 [Example 122, (1S,7S,8S)-2-(7-(8-ethynyl-6,7-difluoronaphthalen-1-yl)-8-fluoro-2-(((2R,7aS)-2-fluorotetrahydro-1H-pyrrolizin-7a(5H)-yl)methoxy-d2)pyrido[4,3-d]pyrimidin-4-yl)-8-fluoro-5-oxa-2-azabicyclo[5.1.0]octane-8-d]
50 to 500 nM	[2H]C([2H])([2H])Oc1c(F)c(F)c(F)c2cccc(-c3ncc4c(N5CCOC[C@H]6[C@H](F)[C@H]65)nc(OC([2H])([2H])[C@@]56CCCN5C[C@H](F)C6)nc4c3F)c12 [Example 123, (1S,7S,8S)-8-fluoro-2-(8-fluoro-2-(((2R,7aS)-2-fluorotetrahydro-1H-pyrrolizin-7a(5H)-yl)methoxy-d2)-7-(5,6,7-trifluoro-8-(methoxy-d3)naphthalen-1-yl)pyrido[4,3-d]pyrimidin-4-yl)-5-oxa-2-azabicyclo[5.1.0]octane]
< 50 nM	[2H]C([2H])([2H])Oc1c(F)c(F)c(F)c2cc(N)cc(-c3ncc4c(N5CCOC([2H])([2H])[C@H]6[C@H](F)[C@H]65)nc(OC([2H])([2H])[C@@]56CCCN5C[C@H](F)C6)nc4c3F)c12 [Example 124, 6,7,8-trifluoro-4-(8-fluoro-4-((1S,7S,8S)-8-fluoro-5-oxa-2-azabicyclo[5.1.0]octan-2-yl-6,6-d2)-2-(((2R,7aS)-2-fluorotetrahydro-1H-pyrrolizin-7a(5H)-yl)methoxy-d2)pyrido[4,3-d]pyrimidin-7-yl)-5-(methoxy-d3)naphthalen-2-amine]
